pKi: −log10 of the molar value.
target: T1, Phosphoribosylglycinamide formyltransferase (Escherichia coli (strain K12), UniProt P08179); test: GAR Tfase Activity Assay; conditions: pH 7.5; 26 °C
T1 sequence (P08179 whole entry): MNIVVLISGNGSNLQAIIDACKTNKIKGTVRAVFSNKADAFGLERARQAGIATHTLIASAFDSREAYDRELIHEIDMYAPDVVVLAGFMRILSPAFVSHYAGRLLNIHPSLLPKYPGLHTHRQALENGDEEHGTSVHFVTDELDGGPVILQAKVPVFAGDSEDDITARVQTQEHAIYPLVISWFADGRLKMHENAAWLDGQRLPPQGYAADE

| pKi | Structure (SMILES) |
| --- | --- |
| 7.00 | Nc1nc2c(c(=O)[nH]1)C[C@@H](CCc1ccc(C(=O)N[C@@H](CCC(=O)O)C(=O)O)cc1)CN2 [5,10-dideazatetrahydrofolic acid] |
| < 4.00 | O=C1NS(=O)(=O)Nc2c1ncn2[C@@H]1O[C@H](CO)[C@@H](O)[C@H]1O [7-[(2R,3R,4S,5R)-3,4-dihydroxy-5-(hydroxymethyl)oxolan-2-yl]-1H,3H,4H,7H-2,1,3,5,7-imidazo[4,5-c][1,2,6]thiadiazine-2,2,4-trione] |
| < 4.00 | O=C1NS(=O)(=O)Nc2c1ncn2[C@@H]1O[C@H](COP(=O)(O)O)[C@@H](O)[C@H]1O [{[(2R,3S,4R,5R)-3,4-dihydroxy-5-(2,2,4-trioxo-1H,3H,4H,7H-2,1,3,5,7-imidazo[4,5-c][1,2,6]thiadiazin-7-yl)oxolan-2-yl]methoxy}phosphonic acid] |

| Structure (SMILES) | pKi |
| --- | --- |
| O=C1NS(=O)(=O)Nc2nc[nH]c21 [1H,3H,4H,7H-2,1,3,5,7-imidazo[4,5-c][1,2,6]thiadiazine-2,2,4-trione] | < 4.00 |
